Key:
Test in all cases: kinobeads assay with mass spectrometry detection of kinases (kinase selectivity profile)
Assay type in all cases: binding
[1] = molecular target: T1, kinases (kinome) (Homo sapiens, UniProt O00444); conditions: PLK4 (Other), IPI00410344
T1 construct: determined in kinobeads assays with mass spectrometry detection of kinases as described previously; endogenous in cells; host or cells: cell lysate
T1 sequence (O00444 1-970): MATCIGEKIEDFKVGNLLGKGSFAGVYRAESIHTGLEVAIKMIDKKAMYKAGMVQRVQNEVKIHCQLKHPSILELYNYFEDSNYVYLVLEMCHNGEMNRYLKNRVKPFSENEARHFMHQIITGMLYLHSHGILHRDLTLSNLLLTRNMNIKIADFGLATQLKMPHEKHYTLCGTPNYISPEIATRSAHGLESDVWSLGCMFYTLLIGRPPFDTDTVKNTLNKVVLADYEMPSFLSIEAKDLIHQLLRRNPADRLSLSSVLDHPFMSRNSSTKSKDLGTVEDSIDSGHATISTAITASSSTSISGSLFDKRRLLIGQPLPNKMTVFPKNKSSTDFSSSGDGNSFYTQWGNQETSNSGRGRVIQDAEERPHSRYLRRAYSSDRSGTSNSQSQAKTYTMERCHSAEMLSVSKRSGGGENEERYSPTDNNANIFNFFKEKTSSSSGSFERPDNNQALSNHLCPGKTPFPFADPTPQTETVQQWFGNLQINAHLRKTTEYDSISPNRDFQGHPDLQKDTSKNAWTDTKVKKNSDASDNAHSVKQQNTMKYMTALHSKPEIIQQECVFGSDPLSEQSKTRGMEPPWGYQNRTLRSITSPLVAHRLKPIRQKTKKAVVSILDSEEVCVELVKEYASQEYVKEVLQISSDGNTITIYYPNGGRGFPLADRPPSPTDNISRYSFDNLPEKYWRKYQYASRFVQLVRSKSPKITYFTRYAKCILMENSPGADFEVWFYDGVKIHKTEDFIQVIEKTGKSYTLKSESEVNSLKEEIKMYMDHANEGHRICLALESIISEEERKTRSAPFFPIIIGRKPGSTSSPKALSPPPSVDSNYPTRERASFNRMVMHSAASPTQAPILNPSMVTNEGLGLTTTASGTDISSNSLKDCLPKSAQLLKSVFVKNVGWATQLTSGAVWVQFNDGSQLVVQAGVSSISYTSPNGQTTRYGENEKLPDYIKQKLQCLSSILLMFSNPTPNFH
From the text: (§1) The protein kinase complement of the human genome (the kinome) was described previously (Manning et al., 2002. Science 298(5600):1912-1934). Sequence accession numbers are defined by the International Protein Index (IPI) (Kersey et al., 2004. Proteomics 4(7):1985-1988).

[2] = molecular target: T2, kinases (kinome) (Homo sapiens, UniProt P10398); conditions: ARAF (TKL), IPI00020578
T2 construct: determined in kinobeads assays with mass spectrometry detection of kinases as described previously; endogenous in cells; host or cells: cell lysate
T2 sequence (P10398 1-606): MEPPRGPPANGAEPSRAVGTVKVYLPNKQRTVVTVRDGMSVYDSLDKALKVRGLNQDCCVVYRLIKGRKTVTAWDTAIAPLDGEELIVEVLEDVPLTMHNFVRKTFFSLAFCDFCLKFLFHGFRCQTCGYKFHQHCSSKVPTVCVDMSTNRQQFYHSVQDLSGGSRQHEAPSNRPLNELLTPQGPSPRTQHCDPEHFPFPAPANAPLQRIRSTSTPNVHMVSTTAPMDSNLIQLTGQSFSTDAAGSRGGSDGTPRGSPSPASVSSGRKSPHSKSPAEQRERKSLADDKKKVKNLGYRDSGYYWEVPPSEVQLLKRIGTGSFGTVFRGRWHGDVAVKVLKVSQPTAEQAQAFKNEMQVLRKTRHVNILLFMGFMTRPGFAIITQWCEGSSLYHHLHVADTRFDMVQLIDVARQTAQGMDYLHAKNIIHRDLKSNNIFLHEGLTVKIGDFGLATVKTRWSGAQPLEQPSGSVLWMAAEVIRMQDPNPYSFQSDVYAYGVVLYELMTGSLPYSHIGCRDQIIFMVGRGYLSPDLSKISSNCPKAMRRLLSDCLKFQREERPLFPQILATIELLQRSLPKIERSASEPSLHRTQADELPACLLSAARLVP
From the text: as §1

[3] = molecular target: T3, kinases (kinome) (Homo sapiens, UniProt P17252); conditions: PKCa (AGC), IPI00385449
T3 construct: determined in kinobeads assays with mass spectrometry detection of kinases as described previously; endogenous in cells; host or cells: cell lysate
From the text: as §1

[4] = molecular target: T4, kinases (kinome) (Homo sapiens, UniProt P28482); conditions: Erk2 (CMGC), IPI00003479
T4 construct: determined in kinobeads assays with mass spectrometry detection of kinases as described previously; endogenous in cells; host or cells: cell lysate
T4 sequence (P28482 whole entry): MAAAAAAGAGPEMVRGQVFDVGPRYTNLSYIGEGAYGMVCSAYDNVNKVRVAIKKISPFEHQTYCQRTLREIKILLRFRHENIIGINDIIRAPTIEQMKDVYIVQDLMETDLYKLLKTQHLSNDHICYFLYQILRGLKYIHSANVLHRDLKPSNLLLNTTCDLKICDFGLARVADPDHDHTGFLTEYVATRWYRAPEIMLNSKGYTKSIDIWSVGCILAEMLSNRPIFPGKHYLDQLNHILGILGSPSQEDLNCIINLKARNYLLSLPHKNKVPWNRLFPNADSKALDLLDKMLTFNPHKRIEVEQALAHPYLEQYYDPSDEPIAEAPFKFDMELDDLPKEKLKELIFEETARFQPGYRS
From the text: as §1

[5] = molecular target: T5, kinases (kinome) (Homo sapiens, UniProt P42338); conditions: PIK3Cb (Lipid Kinase), IPI00031388
T5 construct: determined in kinobeads assays with mass spectrometry detection of kinases as described previously; endogenous in cells; host or cells: cell lysate
From the text: as §1

[6] = molecular target: T6, kinases (kinome) (Homo sapiens, UniProt P48730); conditions: CK1d (CK1), IPI00011102
T6 construct: determined in kinobeads assays with mass spectrometry detection of kinases as described previously; endogenous in cells; host or cells: cell lysate
T6 sequence (P48730 whole entry): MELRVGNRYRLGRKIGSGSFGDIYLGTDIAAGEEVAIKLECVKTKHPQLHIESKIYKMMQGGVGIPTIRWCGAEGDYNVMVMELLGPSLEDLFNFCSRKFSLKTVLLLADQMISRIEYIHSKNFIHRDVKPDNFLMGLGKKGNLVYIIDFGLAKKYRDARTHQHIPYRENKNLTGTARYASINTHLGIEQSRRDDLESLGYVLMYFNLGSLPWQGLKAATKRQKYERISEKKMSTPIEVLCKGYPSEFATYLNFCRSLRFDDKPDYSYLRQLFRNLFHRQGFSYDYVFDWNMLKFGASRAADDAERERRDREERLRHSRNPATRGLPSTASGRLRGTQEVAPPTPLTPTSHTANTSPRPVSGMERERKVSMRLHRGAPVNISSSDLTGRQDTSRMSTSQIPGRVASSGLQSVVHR
From the text: as §1

[7] = molecular target: T7, kinases (kinome) (Homo sapiens, UniProt P78527); conditions: DNAPK (Atypical), IPI00296337
T7 construct: determined in kinobeads assays with mass spectrometry detection of kinases as described previously; endogenous in cells; host or cells: cell lysate
From the text: as §1

[8] = molecular target: T8, kinases (kinome) (Homo sapiens, UniProt Q15569); conditions: TESK1 (TKL), IPI00018182
T8 construct: determined in kinobeads assays with mass spectrometry detection of kinases as described previously; endogenous in cells; host or cells: cell lysate
From the text: as §1

[9] = molecular target: T9, kinases (kinome) (Homo sapiens, UniProt Q16539); conditions: p38a (CMGC), IPI00221141
T9 construct: determined in kinobeads assays with mass spectrometry detection of kinases as described previously; endogenous in cells; host or cells: cell lysate
T9 sequence (Q16539 whole entry): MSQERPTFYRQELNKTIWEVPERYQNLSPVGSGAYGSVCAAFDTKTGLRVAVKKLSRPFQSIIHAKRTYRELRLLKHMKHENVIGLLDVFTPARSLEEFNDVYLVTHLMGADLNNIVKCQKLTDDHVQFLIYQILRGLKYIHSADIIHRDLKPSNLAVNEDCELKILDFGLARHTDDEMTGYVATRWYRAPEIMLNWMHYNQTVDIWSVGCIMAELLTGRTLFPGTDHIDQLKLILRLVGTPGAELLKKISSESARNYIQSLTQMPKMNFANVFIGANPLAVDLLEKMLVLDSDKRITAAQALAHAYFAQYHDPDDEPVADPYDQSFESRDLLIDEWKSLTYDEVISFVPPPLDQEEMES
From the text: as §1

[10] = molecular target: T10, kinases (kinome) (Homo sapiens, UniProt Q8TCG2); conditions: PIK4C2B (Lipid Kinase), IPI00291068
T10 construct: determined in kinobeads assays with mass spectrometry detection of kinases as described previously; endogenous in cells; host or cells: cell lysate
T10 sequence (Q8TCG2 whole entry): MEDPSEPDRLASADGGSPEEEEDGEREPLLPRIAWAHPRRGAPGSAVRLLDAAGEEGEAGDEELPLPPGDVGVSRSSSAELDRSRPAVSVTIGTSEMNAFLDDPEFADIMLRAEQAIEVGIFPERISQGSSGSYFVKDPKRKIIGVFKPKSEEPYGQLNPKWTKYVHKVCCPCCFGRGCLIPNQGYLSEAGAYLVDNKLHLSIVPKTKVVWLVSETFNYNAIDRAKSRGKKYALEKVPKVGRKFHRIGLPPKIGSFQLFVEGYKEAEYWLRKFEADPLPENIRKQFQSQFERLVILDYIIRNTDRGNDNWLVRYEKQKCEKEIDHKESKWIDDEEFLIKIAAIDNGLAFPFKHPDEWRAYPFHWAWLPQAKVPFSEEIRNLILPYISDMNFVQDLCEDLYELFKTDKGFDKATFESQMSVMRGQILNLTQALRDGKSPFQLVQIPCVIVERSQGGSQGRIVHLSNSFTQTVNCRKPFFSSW
From the text: as §1

[11] = molecular target: T11, kinases (kinome) (Homo sapiens, UniProt Q92918); conditions: HPK1 (STE), IPI00020258
T11 construct: determined in kinobeads assays with mass spectrometry detection of kinases as described previously; endogenous in cells; host or cells: cell lysate
T11 sequence (Q92918 whole entry): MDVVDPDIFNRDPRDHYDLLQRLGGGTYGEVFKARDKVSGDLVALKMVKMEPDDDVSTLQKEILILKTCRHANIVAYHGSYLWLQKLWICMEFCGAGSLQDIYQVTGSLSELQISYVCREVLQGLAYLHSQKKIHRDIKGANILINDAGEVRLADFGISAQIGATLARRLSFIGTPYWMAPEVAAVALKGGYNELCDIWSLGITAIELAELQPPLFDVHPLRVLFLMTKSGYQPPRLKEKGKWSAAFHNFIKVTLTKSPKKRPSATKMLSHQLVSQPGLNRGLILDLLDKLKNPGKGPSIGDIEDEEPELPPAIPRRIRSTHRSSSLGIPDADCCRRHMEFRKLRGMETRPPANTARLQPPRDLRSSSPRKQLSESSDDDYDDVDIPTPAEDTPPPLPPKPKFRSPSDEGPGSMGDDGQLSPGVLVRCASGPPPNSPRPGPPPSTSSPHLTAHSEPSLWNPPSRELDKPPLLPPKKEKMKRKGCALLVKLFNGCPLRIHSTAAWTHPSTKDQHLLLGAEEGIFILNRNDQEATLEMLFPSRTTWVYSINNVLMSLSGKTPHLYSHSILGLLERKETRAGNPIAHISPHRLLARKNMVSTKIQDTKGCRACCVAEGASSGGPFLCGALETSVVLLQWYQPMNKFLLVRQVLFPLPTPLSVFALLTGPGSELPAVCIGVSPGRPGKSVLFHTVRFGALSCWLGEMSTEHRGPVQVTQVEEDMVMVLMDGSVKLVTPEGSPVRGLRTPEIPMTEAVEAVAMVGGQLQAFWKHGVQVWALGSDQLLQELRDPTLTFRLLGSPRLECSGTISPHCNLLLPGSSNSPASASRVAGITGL
From the text: as §1

[12] = molecular target: T12, kinases (kinome) (Homo sapiens, UniProt Q9H0K1); conditions: QIK (CAMK), IPI00465291
T12 construct: determined in kinobeads assays with mass spectrometry detection of kinases as described previously; endogenous in cells; host or cells: cell lysate
T12 sequence (Q9H0K1 whole entry): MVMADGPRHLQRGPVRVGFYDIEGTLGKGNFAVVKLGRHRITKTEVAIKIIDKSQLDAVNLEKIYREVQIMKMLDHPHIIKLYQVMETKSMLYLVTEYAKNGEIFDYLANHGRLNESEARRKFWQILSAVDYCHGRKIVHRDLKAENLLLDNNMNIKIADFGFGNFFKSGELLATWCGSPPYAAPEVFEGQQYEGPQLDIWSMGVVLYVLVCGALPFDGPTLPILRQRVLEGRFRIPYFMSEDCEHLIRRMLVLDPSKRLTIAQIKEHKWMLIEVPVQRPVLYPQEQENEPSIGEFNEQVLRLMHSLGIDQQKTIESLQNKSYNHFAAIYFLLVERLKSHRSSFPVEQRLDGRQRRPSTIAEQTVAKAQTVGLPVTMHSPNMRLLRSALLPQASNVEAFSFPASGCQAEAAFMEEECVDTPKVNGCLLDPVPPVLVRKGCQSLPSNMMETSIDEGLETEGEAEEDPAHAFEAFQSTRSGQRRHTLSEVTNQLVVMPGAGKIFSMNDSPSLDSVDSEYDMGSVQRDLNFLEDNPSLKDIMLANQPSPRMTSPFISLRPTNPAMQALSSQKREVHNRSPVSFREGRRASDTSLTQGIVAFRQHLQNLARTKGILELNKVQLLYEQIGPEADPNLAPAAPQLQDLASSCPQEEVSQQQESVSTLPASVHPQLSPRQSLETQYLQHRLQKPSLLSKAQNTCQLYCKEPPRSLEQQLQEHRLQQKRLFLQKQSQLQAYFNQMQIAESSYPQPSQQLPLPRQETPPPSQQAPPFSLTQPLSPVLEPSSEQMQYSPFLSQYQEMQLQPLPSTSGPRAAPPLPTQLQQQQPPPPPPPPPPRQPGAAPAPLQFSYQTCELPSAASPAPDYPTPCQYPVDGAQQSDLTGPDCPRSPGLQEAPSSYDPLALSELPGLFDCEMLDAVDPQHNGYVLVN
From the text: as §1

[13] = molecular target: T13, kinases (kinome) (Homo sapiens, UniProt Q9Y4K4); conditions: KHS1 (STE), IPI00294842
T13 construct: determined in kinobeads assays with mass spectrometry detection of kinases as described previously; endogenous in cells; host or cells: cell lysate
T13 sequence (Q9Y4K4 whole entry): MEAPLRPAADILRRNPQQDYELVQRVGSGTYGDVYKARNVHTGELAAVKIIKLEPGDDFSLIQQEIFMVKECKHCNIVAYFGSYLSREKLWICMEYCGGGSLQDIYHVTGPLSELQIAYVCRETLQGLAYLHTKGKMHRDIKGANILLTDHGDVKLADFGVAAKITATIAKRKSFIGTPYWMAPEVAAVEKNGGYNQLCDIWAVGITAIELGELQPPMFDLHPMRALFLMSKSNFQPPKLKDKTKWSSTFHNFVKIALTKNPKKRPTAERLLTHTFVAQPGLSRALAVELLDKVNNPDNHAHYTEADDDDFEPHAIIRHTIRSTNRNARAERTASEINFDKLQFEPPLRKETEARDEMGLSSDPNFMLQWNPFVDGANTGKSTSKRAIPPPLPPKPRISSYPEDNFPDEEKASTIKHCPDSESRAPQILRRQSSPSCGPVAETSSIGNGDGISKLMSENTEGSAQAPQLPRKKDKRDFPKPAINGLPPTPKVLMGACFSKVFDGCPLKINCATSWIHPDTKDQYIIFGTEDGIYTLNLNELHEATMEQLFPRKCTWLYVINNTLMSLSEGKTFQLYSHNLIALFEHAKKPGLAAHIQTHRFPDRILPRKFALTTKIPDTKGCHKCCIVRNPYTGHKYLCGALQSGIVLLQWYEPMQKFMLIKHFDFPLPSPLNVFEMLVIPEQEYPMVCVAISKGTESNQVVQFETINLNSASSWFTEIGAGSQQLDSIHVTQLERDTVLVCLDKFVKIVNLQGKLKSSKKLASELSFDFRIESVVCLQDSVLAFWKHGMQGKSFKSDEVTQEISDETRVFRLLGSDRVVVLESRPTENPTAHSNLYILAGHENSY
From the text: as §1

[14] = molecular target: T14, kinases (kinome) (Homo sapiens, UniProt Q9Y6R4); conditions: MAP3K4 (STE), IPI00386260
T14 construct: determined in kinobeads assays with mass spectrometry detection of kinases as described previously; endogenous in cells; host or cells: cell lysate
From the text: as §1

Row | IC50 [1] [µM] | IC50 [2] [µM] | IC50 [3] [µM] | IC50 [4] [µM] | IC50 [5] [µM] | IC50 [6] [µM] | IC50 [7] [µM] | IC50 [8] [µM] | IC50 [9] [µM] | IC50 [10] [µM] | IC50 [11] [µM] | IC50 [12] [µM] | IC50 [13] [µM] | IC50 [14] [µM] | SMILES
1 | > 10 | > 10 | > 10 | > 10 | > 10 | > 10 | > 10 | > 10 | > 10 | > 10 | > 10 | > 10 | > 10 | > 10 | C[C@H]1COCCN1c1nc(-c2ccc(NC(=O)NC3CC3)cc2)cc(-c2cc(F)ccc2S(C)(=O)=O)n1 [Example 40, (S)-1-cyclopropyl-3-(4-(6-(5-fluoro-2-(methylsulfonyl)phenyl)-2-(3-methylmorpholino)pyrimidin-4-yl)phenyl)urea]
2 | > 10 | > 10 | > 10 | > 10 | > 10 | > 10 | > 10 | > 10 | > 10 | > 10 | > 10 | > 10 | > 10 | > 10 | C[C@H]1COCCN1c1cc(-c2ccccc2S(C)(=O)=O)nc(-c2ccc(NC(=O)NC3CC3)cc2)n1 [Example 6, (S)-1-cyclopropyl-3-(4-(4-(3-methylmorpholino)-6-(2-(methylsulfonyl)phenyl)pyrimidin-2-yl)phenyl)urea]
3 | > 10 | > 10 | > 10 | > 10 | > 10 | > 10 | > 10 | > 10 | > 10 | > 10 | > 10 | > 10 | > 10 | > 10 | CCNC(=O)Nc1ccc(-c2cc(-c3ccccc3C#N)nc(N3CCOC[C@@H]3C)n2)cc1 [Example 8, (S)-1-(4-(6-(2-cyanophenyl)-2-(3-methylmorpholino)pyrimidin-4-yl)phenyl)-3-ethylurea]
4 | > 10 | > 10 | > 10 | > 10 | > 10 | > 10 | > 10 | > 10 | > 10 | > 10 | > 10 | > 10 | > 10 | > 10 | C[C@H]1COCCN1c1nc(-c2ccc(NC(=O)NC3CC3)cc2)cc(-c2cccnc2S(C)(=O)=O)n1 [Example 46, (S)-1-cyclopropyl-3-(4-(2-(3-methylmorpholino)-6-(2-(methylsulfonyl)pyridin-3-yl)pyrimidin-4-yl)phenyl)urea]
5 | > 10 | > 10 | > 10 | > 10 | > 10 | – | > 10 | – | > 10 | > 10 | > 10 | > 10 | > 10 | > 10 | C[C@H]1COCCN1c1nc(-c2ccc(NC(=O)N[C@H]3CCC[C@@H]3O)cc2)cc(-c2cc(F)ccc2S(C)(=O)=O)n1 [Example 76, 1-(4-(6-(5-fluoro-2-(methylsulfonyl)phenyl)-2-((S)-3-methylmorpholino)pyrimidin-4-yl)phenyl)-3-((1S,2S)-2-hydroxycyclopentyl)urea]
6 | > 10 | > 10 | > 10 | > 10 | > 10 | > 10 | > 10 | > 10 | > 10 | > 10 | > 10 | > 10 | > 10 | > 10 | C[C@H]1COCCN1c1cc(-c2ccccn2)nc(-c2ccc(NC(=O)NCCO)cc2)n1 [Example 43, (S)-1-(2-hydroxyethyl)-3-(4-(4-(3-methylmorpholino)-6-(pyridin-2-yl)pyrimidin-2-yl)phenyl)urea]
7 | > 10 | > 10 | > 10 | > 10 | > 10 | > 10 | > 10 | > 10 | > 10 | > 10 | > 10 | > 10 | > 10 | > 10 | C[C@H]1COCCN1c1nc(-c2ccc(NC(=O)NC3CC3)cc2)cc(-c2ccccc2S(C)(=O)=O)n1 [Example 4, (S)-1-cyclopropyl-3-(4-(2-(3-methylmorpholino)-6-(2-(methylsulfonyl)phenyl)pyrimidin-4-yl)phenyl)urea]

Source: patent US9249129B2, “Morpholino substituted urea derivatives as mTOR inhibitors” (CELLZOME LIMITED, priority 2010, dated 2016)
